Results taken from PMC9387325, “New quinoline and isatin derivatives as apoptotic VEGFR-2 inhibitors: design, synthesis, anti-proliferative activity, docking, ADMET, toxicity, and MD simulation studies” (Journal of Enzyme Inhibition and Medicinal Chemistry, 2022).

Legend:
A549 = assay: In vitro anti-proliferative activity (MTT assay); type: cell-based, human; conditions: for IC50: Homo sapiens, A549, mean of three replicates; for Selectivity index A549: IC50 on normal (Vero) cells / IC50 on A549
Experimental: (§1) Anti-proliferative activities were assessed using the MTT assay[31]^,[46] and were explained intensely in Supplementary data. […]
(§2) a- Mammalian cell lines culture
(§3) Lung carcinoma epithelial (A549), colon cancer (Caco-2)cell lines were cultured on DMEM media, […]
(§4) RBMI media. The cultured media were supplement ed with 200 mM L-glutamine, 10.0% fetal bovine serum (Lonza), and 1.0% penicillin/streptomycin. Cells were seeded into 25.0 cm tissue culture flasks and incubated at 37 ◦C in a 5.0% CO2 incubator for 24 h or till confluency.
(§5) The safety profiles of the tested compounds were checked on one non-cancerous cell line (Vero) to […]
(§6) of 100.0 µl of 6×10^4 cell/ml cells was seeded in to each well of a 96-well plate and then the plates were incubated at 37 °C in a humidified 5.0% CO2 incubator for 24 h. At the end of incubation period, the exhausted medium was replaced with 100.0 µl of different concentrations of the designated treatment (prepared in RPMI medium starting from 1.0 mM). The inoculated plates were incubated at the same growth conditions for another 24 h. At the end of incubation, cellular viability was assessed using MTS assay kit (Promega) according to the manual instruction. c- In-vitro anticancer activity
(§7) Anticancer activities of the tested compounds against lung carcinoma epithelial (A549), colon cancer […]
(§8) quantified using MTS assay kit (Promega) as described by the Manufacturer. d- Selectivity index (SI)
(§9) The selectivity index values of the tested compounds on cancer cells were calculated as described by Koch et al., with slight modifications; SI=IC50nc/IC50cc, where IC50nc: the IC50 value of the tested compound on normal cells and IC 50cc: IC50 of the tested compound on cancer cell line . […]

MDA-MB-231 = assay: In vitro anti-proliferative activity (MTT assay); type: cell-based, human; conditions: for IC50: Homo sapiens, MDA-MB-231, MDA-MB231, mean of three replicates; for Selectivity index MDA-MB231: IC50 on normal (Vero) cells / IC50 on MDA-MB231
Experimental: as §1, §2, §3, §4, §5, §6, §7, §8, §9

HepG2 = assay: In vitro anti-proliferative activity (MTT assay); type: cell-based, human; conditions: for IC50: Homo sapiens, HepG2, HepG-2, mean of three replicates; for Selectivity index HepG2: IC50 on normal (Vero) cells / IC50 on HepG2
Experimental: as §1, §2, §3, §4, §5, §6, §7, §8, §9

[1] = Cytotoxicity against normal cells (safety assay); type: cell-based; conditions: African green monkey, Vero cells (non-cancerous cell line)
Experimental: The cytotoxic activities of the synthesised against normal cells were evaluated against the Vero cell line utilising an MTT assay.
The safety profiles were examined on Vero cells (non-cancerous cell line) and was explained intensely in Supplementary data[48]. […]
a- Mammalian cell lines culture […]
as §4, §5
as §6, with “c- In-vitro anticancer activity” left out

VEGFR-2 = biological target: T1, VEGFR-2 (Homo sapiens, UniProt P35968); assay: In vitro VEGFR-2 kinase assay (VEGFR-2 ELISA kit); type: biochemical; conditions: for IC50: mean of three replicates, read-out: VEGFR-2 inhibitory activity IC50; for HillSlope (best-fit value), VEGFR-2 inhibition / LogIC50 (best-fit value), VEGFR-2 inhibition: dose-response fit, supplement
T1 construct: purchased
Experimental: As the main target in this work is the design and synthesis of promising VEGFR-2 inhibitors, we subjected the synthesised compounds to in vitro VEGFR-2 inhibitory assay to assess the ability of these compounds to obstacle the kinase activity of VEGFR-2.
Was tested using a VEGFR-2 ELISA kit and was explained intensely in Supplementary data[47].

Caco-2 = assay: In vitro anti-proliferative activity (MTT assay); type: cell-based, human; conditions: for IC50: Homo sapiens, Caco-2, mean of three replicates
Experimental: (§10) To assess the antiproliferative effects of the targeted candidates, an MTT assay[29–31] was performed against four cancer cell lines: lung carcinoma epithelial (A549), colon cancer (Caco-2), hepatocellular cancer (HepG2), and breast cancer (MDA-MB-231).
as §1, §2
as §4, with “Lung carcinoma epithelial (A549), colon cancer (Caco-2)cell lines were cultured on DMEM media, meanwhile hepatocellular cancer (HepG2), and breast cancer (MDA-MB-231) cell lines were cultured on RBMI” for “RBMI”
as §5, §6
(§11) Anticancer activities of the tested compounds against lung carcinoma epithelial (A549), colon cancer (Caco-2), hepatocellular cancer (HepG2), and breast cancer (MDA-MB-231) cell lines were quantified using MTS assay kit (Promega) as described by the Manufacturer. d- Selectivity index (SI)
as §9

Caco-2 cells [2] = assay: Wound healing assay (migration assay); type: cell-based, human
Experimental: In this test, Caco-2 cells were allowed to grow then, a wound was formed on the cell layer. Next, the cells were incubated with the sub IC50 dose of compound 7. The results of wound healing were compared to the untreated cell line. Figure 4 illustrates the degree of wound healing caused by compound 7 compared to the control cells.
Was performed as the described protocol[50] and was explained intensely in Supplementary data. […]
as §2
Lung carcinoma epithelial (A549), colon cancer (Caco-2)cell lines were cultured on DMEM media, meanwhile hepatocellular cancer (HepG2), and breast cancer (MDA-MB-231) cell lines were cultured on RBMI media. […]
of 100.0 µl of 6×10^4 cell/ml cells was seeded in to each well of a 96-well plate and then the plates were incubated at 37 °C in a humidified 5.0% CO2 incubator for 24 h. […] At the end of incubation, cellular viability was assessed using MTS assay kit (Promega) according to the manual instruction. c- In-vitro anticancer activity
Anticancer activities of the tested compounds against lung carcinoma epithelial (A549), colon cancer (Caco-2), hepatocellular cancer (HepG2), and breast cancer (MDA-MB-231) cell lines were quantified using MTS assay kit (Promega) as described by the Manufacturer. d- Selectivity index (SI) […]

Bcl-xl = assay: RT-qPCR gene expression in Caco-2 cells; type: cell-based, human; conditions: Caco-2, 90 µM, 24 h
Experimental: (§12) RT-qPCR technique was applied to assess the expression levels of Bcl2, Bcl-xl, Survivin, and TGF in Caco-2 cells after treatment with compound 7 for 24 h. […] On the other hand, such a compound produced an upregulation effect of the TGF gene.
(§13) Bcl2, Bcl-xl, TGF and Survivin genes levels were evaluated as reported[51] and was explained intensely in Supplementary data. […]
(§14) f- Gene expression pattern alternation of cancer cell after treatment with compound 7.
(§15) The molecular anticancer mode of action of 7 was investigated by screening their ability to affect the gene expression levels of Bcl2, Bcl-xl, TGF and Survivin genes using specific forward and reverse primers and RTq-PCR technique (Table 1) in CaCo-2 cells (chosen as the most sensitive cancer cell line). After cellular treatment, CaCo-2 cell line was cultured into 12 well plates (6×10^3 cell/ml) for 24 h. with the sub -IC50 concentration of 7. After treatment, total RNA extraction was performed using RNA extraction kit (Qiagen, Germany). Then, 1 ug of the obtained RNA was used to synthesiz cDNA using cDNA synthesis kit (Promega Corp., Madison, WI) as recommended by the manufacturer . Simultaneously, GAPDH forward and reverse primers (Table 1) were used to amplify the house keeping gene as internal control for standardization of PCR products. The RTq -PCR was done using SYBR Green dye (QuantiTect SYBR Green PCR Kits) and Light Cycler fluorimeter (Bio-RAD S1000 Tm thermal cycler). The PCR cycling program was as follows: 95 °C for 2 min, followed by 40 cycles of 95 °C for 30s, 55 °C for 30 s, and 60 °C for 45s, and finally 60 °C for 5 min. […]

Bcl2 = assay: RT-qPCR gene expression in Caco-2 cells; type: cell-based, human; conditions: Caco-2, 90 µM, 24 h
Experimental: as §12, §13, §14, §15

Survivin = assay: RT-qPCR gene expression in Caco-2 cells; type: cell-based, human; conditions: Caco-2, 90 µM, 24 h
Experimental: as §12, §13, §14, §15

TGF = assay: RT-qPCR gene expression in Caco-2 cells; type: cell-based, human; conditions: Caco-2, 90 µM, 24 h
Experimental: as §12, §13, §14, §15

Caco-2 cells [3] = assay: Flow cytometric cell cycle analysis; type: cell-based, human; conditions: Caco-2, 90 µM, 24 h
Source text: Employing the flowcytometry technique, the cell cycle pattern of the untrated Caco-2 cancer cells (Figure 6(A)) was compared with that of the treated cells with compound 7.

[4] = In vitro anti-proliferative activity (MTT assay); type: cell-based, human; conditions: African green monkey (Vero) / human (Caco-2); IC50 on normal (Vero) cells / IC50 on Caco-2; read-out: Selectivity index Caco-2
Experimental: as §10, §1, §2
as §4, with “Lung carcinoma epithelial (A549), colon cancer (Caco-2)cell lines were cultured on DMEM media, meanwhile hepatocellular cancer (HepG2), and breast cancer (MDA-MB-231) cell lines were cultured on RBMI” for “RBMI”
as §5, §6, §11, §9

T1 sequence (P35968 20-1356): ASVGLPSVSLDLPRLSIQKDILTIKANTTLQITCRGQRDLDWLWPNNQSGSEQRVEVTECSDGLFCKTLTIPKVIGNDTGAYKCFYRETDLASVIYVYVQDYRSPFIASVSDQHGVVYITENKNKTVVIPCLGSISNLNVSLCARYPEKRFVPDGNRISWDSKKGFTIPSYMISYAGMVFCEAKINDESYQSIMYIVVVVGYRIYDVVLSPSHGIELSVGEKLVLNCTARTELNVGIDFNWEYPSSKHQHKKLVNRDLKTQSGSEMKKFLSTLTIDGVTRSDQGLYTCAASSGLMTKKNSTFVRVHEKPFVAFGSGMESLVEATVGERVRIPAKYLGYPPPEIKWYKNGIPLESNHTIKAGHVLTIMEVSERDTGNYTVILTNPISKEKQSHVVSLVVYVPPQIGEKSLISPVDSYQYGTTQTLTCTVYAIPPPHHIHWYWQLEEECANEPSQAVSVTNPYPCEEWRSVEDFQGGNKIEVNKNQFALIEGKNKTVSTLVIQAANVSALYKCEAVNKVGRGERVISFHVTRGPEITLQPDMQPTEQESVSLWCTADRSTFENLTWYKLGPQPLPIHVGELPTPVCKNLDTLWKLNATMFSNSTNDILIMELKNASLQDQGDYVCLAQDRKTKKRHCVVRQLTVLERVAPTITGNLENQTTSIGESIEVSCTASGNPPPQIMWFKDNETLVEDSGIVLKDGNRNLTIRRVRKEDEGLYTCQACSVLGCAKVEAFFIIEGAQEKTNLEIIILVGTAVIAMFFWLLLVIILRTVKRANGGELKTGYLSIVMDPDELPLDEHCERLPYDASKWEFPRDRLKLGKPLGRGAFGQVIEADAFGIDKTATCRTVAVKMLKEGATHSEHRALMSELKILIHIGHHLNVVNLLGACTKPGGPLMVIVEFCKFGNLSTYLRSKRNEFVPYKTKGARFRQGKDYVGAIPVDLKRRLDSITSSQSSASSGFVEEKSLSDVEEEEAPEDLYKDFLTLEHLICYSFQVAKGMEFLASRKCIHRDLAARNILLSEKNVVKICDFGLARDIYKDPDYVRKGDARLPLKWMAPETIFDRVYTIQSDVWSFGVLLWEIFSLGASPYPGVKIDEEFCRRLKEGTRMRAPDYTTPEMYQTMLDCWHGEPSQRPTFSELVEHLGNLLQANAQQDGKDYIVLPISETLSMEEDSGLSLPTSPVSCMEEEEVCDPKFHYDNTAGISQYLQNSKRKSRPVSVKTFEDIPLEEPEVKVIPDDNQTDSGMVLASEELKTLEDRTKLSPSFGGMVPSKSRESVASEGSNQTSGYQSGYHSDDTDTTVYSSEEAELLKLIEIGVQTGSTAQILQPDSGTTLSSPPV

SMILES | IC50 (A549) [µM] | IC50 (MDA-MB-231) [µM] | IC50 (HepG2) [µM] | IC50 at 24 h [1] [µM] | IC50 (VEGFR-2) [µM] | IC50 (Caco-2) [µM] | Selectivity index A549 (A549) | Selectivity index MDA-MB231 (MDA-MB-231) | Selectivity index HepG2 (HepG2) | HillSlope (best-fit value), VEGFR-2 inhibition (VEGFR-2) | LogIC50 (best-fit value), VEGFR-2 inhibition (VEGFR-2) | selectivity ratio [4] | other results
COc1ccc(NC(=O)CN2C(=O)S/C(=C3\C(=O)Nc4ccccc43)C2=O)cc1 [Compound 14] | 54 ± 1.4 | 9 ± 0.51 | 149 ± 7.01 | 30 ± 1.35 | 0.0859 | 5.7 ± 0.07 |  |  |  |  |  |  | times as active as doxorubicin (Caco-2; Caco-2 cells): 1.44 times
COc1ccc2[nH]c(=O)c(/C=C3\SC(=O)N(CC(=O)Nc4ccccc4)C3=O)cc2c1 [Compound 7, (Z)-2–(5-((6-Methoxy-2-oxo-1,2-dihydroquinolin-3-yl)methylene)-2,4-dioxothiazolidin-3-yl)-N-phenylacetamide] | 159 ± 14 | 122 ± 7.01 | 150 ± 7.07 | 440 ± 14.1 |  | 93.5 ± 0.71 | 2.77 | 3.59 | 2.93 | -0.4960 | 2.138 Log (nM) | 4.71 | diameter of the wound, treated cells (Figure 4A) (Caco-2 cells [2]; Caco-2, 90 µM, time not stated): 0.3058 mm; effect on wound healing (Caco-2 cells [2]; Caco-2, sub IC50 dose (90 µM)): prevent wound healing; Relative expression of Bcl-xl gene (Bcl-xl): down-regulating; Relative expression of Bcl2 gene (Bcl2): down-regulating; Relative expression of Survivin gene (Survivin): down-regulating; Relative expression of TGF gene (TGF): upregulation; cell cycle arrest (Caco-2 cells [3]): cellular arrest in sub G0 (Apoptotic phase); cell population in S phase (Caco-2 cells [3]; untreated 24.7%): 13.1%; cell population in G0/G1 phase (Caco-2 cells [3]; untreated 51.7%): 46.4%
COc1cccc2c1C(=O)c1c(O)c3c(c(O)c1C2=O)C[C@@](O)(C(=O)CO)C[C@@H]3O[C@H]1C[C@H](N)[C@H](O)[C@H](C)O1 [Doxorubicin, reference compound] | 7 ± 0.22 | 9 ± 0.77 | 2.8 ± 0.07 | 25 ± 1.41 |  | 8.2 ± 0.21 | 3.57 | 2.78 | 8.93 |  |  | 3.05 | 
COc1ccc2[nH]c(=O)c(/C=C3\SC(=O)N(CC(=O)Nc4ccccc4C)C3=O)cc2c1 [Compound 9, (Z)-2–(5-((6-Methoxy-2-oxo-1,2-dihydroquinolin-3-yl)methylene)-2,4-dioxothiazolidin-3-yl)-N-(o-tolyl)acetamide] | 51 ± 4.2 | 188 ± 7.01 | 145 ± 3.5 | 196 ± 2.8 | 0.0985 | 167 ± 4.2 | 3.84 | 1.04 | 1.35 | -0.5262 | 1.994 Log (nM) | 1.17 | times as active as sorafenib (VEGFR-2; VEGFR-2 inhibition): 0.54 times
COc1ccc(NC(=O)CN2C(=O)S/C(=C\c3cc4cc(OC)ccc4[nH]c3=O)C2=O)cc1 [Compound 8, (Z)-2–(5-((6-Methoxy-2-oxo-1,2-dihydroquinolin-3-yl)methylene)-2,4-dioxothiazolidin-3-yl)-N-(4-methoxyphenyl)acetamide] | 196 ± 70 | 130 ± 5.6 | 134 ± 1.41 | 150 ± 14.1 | 0.187 | 190 ± 9.11 | 0.77 | 1.15 | 1.12 | -0.3463 | 2.272 Log (nM) | 0.79 | 
